Our source for the IC50 values is patent US20240351997A1, “NOVEL PARP7 INHIBITOR AND USE THEREOF” (SHANGHAI QILU PHARMACEUTICAL RESEARCH AND DEVELOPMENT …, priority 2021, published 2024).

This assay concerns the target PARP7 (Homo sapiens (Human), UniProt Q7Z3E1). Kind of assay: In vitro enzymology experiment of PARP7 (enzymatic inhibition). It counts as biochemical. How it is done:
II. In Vitro Enzymology Experiment of PARP2, 3, 5A, 5B, 7, 12, and 15
1. Preparation of 384-well histone-coated plate: 25 μL of histone solution was added to each well, and the plate was incubated overnight at 4° C.
2. Preparation of PBST buffer, blocking buffer, and assay buffer
3. The 384-well histone-coated plate was washed three times with PBST buffer. The plate was blocked by 50 μL of blocking buffer for 1 hour at room temperature. The plate was then washed three times with PBST buffer.
2000× compound was prepared in a 96-well source plate. 50 nL of the compound was transferred from the source plate to a 96-well intermediate plate, and 39.95 μL of assay buffer was added to each well. The plate was shaken well and centrifuged at 1000 rpm for 1 minute.
5 μL of compound DMSO solution was transferred to each well.
An enzyme mixture was incubated at 25° C. for 10 minutes.
10 μL of the enzyme mixture was added, and incubated with the compound at room temperature for 10 minutes.
10 μL of assay buffer was added to the negative control well of the assay plate.
The plate was then washed three times with PBST buffer.
25 μL of Stre-HRP was added.
The plate was incubated at room temperature for 1 hour and washed three times with PBS buffer.
25 μL of QuantaRed Enhancer mix was added. The plate was incubated for 10 minutes.
2.5 μL of QuantaRed Stop Solution was added to terminate the peroxidase reaction, and the plate was shaken for 10 to 30 seconds.
7. Paradigm was used to read the plate immediately to detect the readings at Ex550/Em620.
Using equation (1) to fit the data in Excel to obtain inhibition values
Using equation (2) to fit the data in XL-Fit to obtain IC50 values
Y is the percentage of inhibition, and X is the compound concentration.

Sequence of PARP7 (Q7Z3E1 whole entry): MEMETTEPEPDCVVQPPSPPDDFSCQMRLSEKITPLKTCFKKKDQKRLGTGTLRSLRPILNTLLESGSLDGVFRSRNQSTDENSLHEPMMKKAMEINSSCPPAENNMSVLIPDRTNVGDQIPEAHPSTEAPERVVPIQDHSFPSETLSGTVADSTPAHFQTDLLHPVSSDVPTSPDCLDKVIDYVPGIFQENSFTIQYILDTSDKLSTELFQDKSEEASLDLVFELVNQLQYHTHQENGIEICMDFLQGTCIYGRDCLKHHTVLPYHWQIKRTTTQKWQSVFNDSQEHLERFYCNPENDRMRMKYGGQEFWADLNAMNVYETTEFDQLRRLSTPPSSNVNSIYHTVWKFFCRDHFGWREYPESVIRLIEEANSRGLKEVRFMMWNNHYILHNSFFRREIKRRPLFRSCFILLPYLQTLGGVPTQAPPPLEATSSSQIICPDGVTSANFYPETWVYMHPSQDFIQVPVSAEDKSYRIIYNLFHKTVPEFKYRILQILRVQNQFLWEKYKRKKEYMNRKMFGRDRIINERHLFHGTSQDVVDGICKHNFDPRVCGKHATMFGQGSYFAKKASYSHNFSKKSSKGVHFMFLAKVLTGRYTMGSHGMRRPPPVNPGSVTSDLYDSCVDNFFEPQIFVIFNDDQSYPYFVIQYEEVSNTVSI

Regarding `O=C(OCCc1c[nH]c(=O)c(C(F)(F)F)c1)N1CCN(c2ncc(C(F)(F)F)cc2F)CC1` [Example 130, 2-(6-Oxo-5-(trifluoromethyl)-1,6-dihydropyridin-3-yl)ethyl 4-(3-fluoro-5-(trifluoromethyl)pyridin-2-yl)piperazine-1-carboxylate], it took 0.77 nM to reach half-maximal inhibition (IC50).
Under `Cc1cc(C(F)(F)F)cnc1N1CCN(C(=O)OCCc2c[nH]c(=O)c(C(F)(F)F)c2)CC1` [Example 132, 2-(6-Oxo-5-(trifluoromethyl)-1,6-dihydropyridin-3-yl)ethyl 4-(3-methyl-5-(trifluoromethyl)pyridin-2-yl)piperazine-1-carboxylate] stands 0.78 nM; under `C[C@@H](Cc1c[nH]c(=O)c(C(F)(F)F)c1)OC(=O)N1CCN(c2cnc(C#N)cn2)CC1` [Example 76, (S)-1-(6-Oxo-5-(trifluoromethyl)-1,6-dihydropyridin-3-yl)propan-2-yl 4-(5-cyanopyrazin-2-yl)piperazine-1-carboxylate], 0.67 nM; under `CC(Cc1c[nH]c(=O)c(C(F)(F)F)c1)OC(=O)N1CCN(c2ncc(C(F)(F)F)cn2)CC1` (stereo not shown) [Example 33, 1-(6-Oxo-5-(trifluoromethyl)-1,6-dihydropyridin-3-yl)propan-2-yl 4-(5-(trifluoromethyl)pyrimidin-2-yl)piperazine-1-carboxylate], 0.9 nM.
Under `O=C(CCOc1c[nH]c(=O)c(C(F)(F)F)c1)N1CCN(c2ncc(C(F)(F)F)cn2)CC1` [Example 17, 5-(3-Oxo-3-(4-(5-(trifluoromethyl)pyrimidin-2-yl)piperazin-1-yl)propoxy)-3-(trifluoromethyl)pyridin-2(1H)-one] stands 2.79 nM.
Take `C[C@@H](Cc1c[nH]c(=O)c(C(F)(F)F)c1)OC(=O)N1CCN(c2ncc(F)cn2)CC1` [Example 65, (S)-1-(6-Oxo-5-(trifluoromethyl)-1,6-dihydropyridin-3-yl)propan-2-yl 4-(5-fluoropyrimidin-2-yl)piperazine-1-carboxylate]: the IC50 – broadly, the concentration that gives 50% inhibition – was found to be 0.65 nM.
The result for `C[C@@H]1CN(C(=O)O[C@@H](C)Cc2c[nH]c(=O)c(C(F)(F)F)c2)C[C@@H](C)N1c1ncc(C(F)(F)F)cn1` [Example 157, (S)-1-(6-Oxo-5-(trifluoromethyl)-1,6-dihydropyridin-3-yl)propan-2-yl (3R,5R)-3,5-dimethyl-4-(5-(trifluoromethyl)pyrimidin-2-yl)piperazine-1-carboxylate] reads 0.9 nM; that for `O=C(O[C@H]1CCC[C@H]1c1c[nH]c(=O)c(C(F)(F)F)c1)N1CCN(c2ncc(C(F)(F)F)cn2)CC1` [Example 82, (1S,2S)-2-(6-Oxo-5-(trifluoromethyl)-1,6-dihydropyridin-3-yl)cyclopentyl 4-(5-(trifluoromethyl)pyrimidin-2-yl)piperazine-1-carboxylate], 1.44 nM; that for `C[C@@H](Cc1c[nH]c(=O)c(C(F)(F)F)c1)OC(=O)N1CCN(c2ncc(C3CC3)cn2)CC1` [Example 176, (S)-1-(6-Oxo-5-(trifluoromethyl)-1,6-dihydropyridin-3-yl)propan-2-yl 4-(5-cyclopropylpyrimidin-2-yl)piperazine-1-carboxylate], 1.7 nM.
The result for `CC(Cc1c[nH]c(=O)c(C(F)(F)F)c1)OC(=O)N1CCN(c2ncc(C#N)cn2)CC1` (stereo not shown) [Example 45, 1-(6-Oxo-5-(trifluoromethyl)-1,6-dihydropyridin-3-yl)propan-2-yl 4-(5-cyanopyrimidine-2-yl)piperazine-1-carboxylate] reads 2.26 nM.
The result for `O=C(OCCc1c[nH]c(=O)c(C(F)(F)F)c1)N1CCN(c2ncc(C(F)(F)F)cn2)C[C@H]1CO` [Example 110, 2-(6-Oxo-5-(trifluoromethyl)-1,6-dihydropyridin-3-yl)ethyl (S)-2-(hydroxymethyl)-4-(5-(trifluoromethyl)pyrimidin-2-yl)piperazine-1-carboxylate] reads 0.65 nM; that for `C[C@@H]1CN(C(=O)O[C@@H](C)Cc2c[nH]c(=O)c(C(F)(F)F)c2)[C@@H](C)CN1c1ncc(C2CC2)cn1` [Example 178, (S)-1-(6-Oxo-5-(trifluoromethyl)-1,6-dihydropyridin-3-yl)propan-2-yl (2S,5R)-4-(5-cyclopropylpyrimidin-2-yl)-2,5-dimethylpiperazine-1-carboxylate], 1.4 nM; that for `CC[C@@H](Cc1c[nH]c(=O)c(C(F)(F)F)c1)OC(=O)N1CCN(c2ncc(C(F)(F)F)cn2)CC1` [Example 116, (S)-1-(6-Oxo-5-(trifluoromethyl)-1,6-dihydropyridin-3-yl) butan-2-yl 4-(5-(trifluoromethyl)pyrimidin-2-yl)piperazine-1-carboxylate], 0.81 nM.
Molecule `C[C@@H]1CN(c2ncc(C3CC3)cn2)C[C@H](C)N1C(=O)OCCc1c[nH]c(=O)c(C(F)(F)F)c1` [Example 151, 2-(6-Oxo-5-(trifluoromethyl)-1,6-dihydropyridin-3-yl)ethyl (2R,6S)-4-(5-cyclopropylpyrimidin-2-yl)-2,6-dimethylpiperazine-1-carboxylate] showed an IC50 of 1.1 nM.
Turning to `CNC(=O)c1ccc(N2CCN(C(=O)O[C@@H](C)Cc3c[nH]c(=O)c(C(F)(F)F)c3)CC2)cn1` [Example 88, (S)-1-(6-Oxo-5-(trifluoromethyl)-1,6-dihydropyridin-3-yl)propan-2-yl 4-(6-(methylcarbamoyl)pyridin-3-yl)piperazine-1-carboxylate], the IC50 came to 1.98 nM.
For `C[C@@H]1CN(c2ncc(C(F)(F)F)cn2)CCN1C(=O)O[C@@H](C)Cc1c[nH]c(=O)c(C(F)(F)F)c1` [Example 91, (S)-1-(6-Oxo-5-(trifluoromethyl)-1,6-dihydropyridin-3-yl)propan-2-yl (R)-2-methyl-4-(5-(trifluoromethyl)pyrimidin-2-yl)piperazine-1-carboxylate], the IC50 worked out at 0.78 nM.
Under `C[C@@H]1CN(C(=O)OCCc2c[nH]c(=O)c(C(F)(F)F)c2)C[C@@H](C)N1c1ncc(C(F)(F)F)cn1` [Example 149, 2-(6-Oxo-5-(trifluoromethyl)-1,6-dihydropyridin-3-yl)ethyl (3R,5R)-3,5-dimethyl-4-(5-(trifluoromethyl)pyrimidin-2-yl)piperazine-1-carboxylate] stands 0.64 nM.
The result for `O=C(OCCc1c[nH]c(=O)c(C(F)(F)F)c1)N1CCN(c2ccc(C(F)(F)F)cn2)CC1` [Example 106, 2-(6-Oxo-5-(trifluoromethyl)-1,6-dihydropyridin-3-yl)ethyl 4-(5-(trifluoromethyl)pyridin-2-yl)piperazine-1-carboxylate] reads 0.46 nM; that for `O=C(COC[C@@H]1CCCN1c1c[nH]c(=O)c(C(F)(F)F)c1)N1CCN(c2ncc(C(F)(F)F)cn2)CC1` [Example 7, (S)-5-(2-((2-Oxo-2-(4-(5-(trifluoromethyl)pyrimidin-2-yl)piperazin-1-yl)ethoxy)methyl)pyrrolidin-1-yl)-3-(trifluoromethyl)pyridin-2(1H)-one], 2.79 nM; that for `C[C@@H]1CN(c2ncc(C3CC3)cn2)[C@H](C)CN1C(=O)O[C@@H](C)Cc1c[nH]c(=O)c(C(F)(F)F)c1` [Example 179, (S)-1-(6-Oxo-5-(trifluoromethyl)-1,6-dihydropyridin-3-yl)propan-2-yl (2R,5R)-4-(5-cyclopropylpyrimidin-2-yl)-2,5-dimethylpiperazine-1-carboxylate], 1 nM.
`O=C(COCC1CCCC1c1c[nH]c(=O)c(C(F)(F)F)c1)N1CCN(c2ncc(C(F)(F)F)cn2)CC1` (stereo not shown) [Example 58, 5-(2-((2-Oxo-2-(4-(5-(trifluoromethyl)pyrimidin-2-yl)piperazin-1-yl)ethoxy)methyl)cyclopentyl)-3-(trifluoromethyl)pyridin-2(1H)-one] displayed an IC50 of 3.18 nM.
Consider `Cc1cnc(N2C[C@@H](C)N(C(=O)O[C@@H](C)Cc3c[nH]c(=O)c(C(F)(F)F)c3)C[C@@H]2C)nc1` [Example 172, (S)-1-(6-Oxo-5-(trifluoromethyl)-1,6-dihydropyridin-3-yl)propan-2-yl (2R,5S)-2,5-dimethyl-4-(5-methylpyrimidin-2-yl)piperazine-1-carboxylate], for which half-maximal inhibition (IC50) required 0.84 nM. This IC50 is about 3.8-fold lower than that of the molecule before.
Under `C[C@@H]1CN(c2ncc(C(F)(F)F)cn2)C[C@H](C)N1C(=O)O[C@@H](C)Cc1c[nH]c(=O)c(C(F)(F)F)c1` [Example 156, (S)-1-(6-Oxo-5-(trifluoromethyl)-1,6-dihydropyridin-3-yl)propan-2-yl (2R,6S)-2,6-dimethyl-4-(5-(trifluoromethyl)pyrimidin-2-yl)piperazine-1-carboxylate] stands 0.98 nM; under `O=C(CCc1c[nH]c(=O)c(C(F)(F)F)c1)N1CCN(c2ncc(C(F)(F)F)cn2)CC1` [Example 28, 5-(3-Oxo-3-(4-(5-(trifluoromethyl)pyrimidin-2-yl)piperazin-1-yl)propyl)-3-(trifluoromethyl)pyridin-2(1H)-one], 0.9 nM.
The result for `C[C@@H]1CN(C(=O)OCCc2c[nH]c(=O)c(C(F)(F)F)c2)CCN1c1ncc(C(F)(F)F)cn1` [Example 112, 2-(6-Oxo-5-(trifluoromethyl)-1,6-dihydropyridin-3-yl)ethyl (R)-3-methyl-4-(5-(trifluoromethyl)pyrimidin-2-yl)piperazine-1-carboxylate] reads 0.62 nM.
